According to ChEMBL document CHEMBL5579854, “Targeting Relevant HDACs to Support the Survival of Cone Photoreceptors in Inherited Retinal Diseases: Identification of a Potent Pharmacological Tool with In Vitro and In Vivo Efficacy” (J Med Chem, 2024):
Values after ≈ are worked out from the molar mass of the structure shown. Active and inactive are the calls of the source. The rule behind the calls is not given here.

Assays:
[1] = Stability of compound at pH 7.4 measured after 24 hrs; format: physicochemical; details: buffer, read-out: Stability
[2] = Lipophilicity, logP of compound; format: physicochemical; details: octanol/water
[3] = Solubility of compound; format: physicochemical
Histone deacetylase 1 [4] = molecular target: T1, Histone deacetylase 1 (Homo sapiens, UniProt Q13547); assay: Inhibition of C-terminal 6xHis-tagged full-length recombinant human HDAC1 (1 to 482 residues) expressed in Sf9 insect cells using a fluorogenic substrate preincubated for 30 mins followed by substrate addition measured after 30 mins by fluorescence based assay
Histone deacetylase 1 [5] = molecular target: T1, Histone deacetylase 1; assay: Inhibition of C-terminal 6xHis-tagged full-length recombinant human HDAC1 (1 to 482 residues) expressed in Sf9 insect cells using a fluorogenic substrate preincubated for 30 mins followed by substrate addition measured after 30 mins by fluorescence based assay relative to control; details: time 60.0 min
661W [6] = assay: Effect on acetylated histone H3 level in H2O2-induced oxidative stress in mouse 661W cells at 10 uM incubated for 24 hrs followed by H2O2 treatment for 3 hrs by Western blot analysis; format: functional, cell-based; details: time 27.0 hrs
661W [7] = assay: Effect on acetylated alpha-tubulin level in H2O2-induced oxidative stress in mouse 661W cells at 10 uM incubated for 24 hrs followed by H2O2 treatment for 3 hrs by Western blot analysis; format: functional, cell-based; details: time 27.0 hrs
661W [8] = assay: Cytoprotective effect against H2O2-induced oxidative stress in mouse 661W cells assessed as increase in acetylated alpha-tubulin level at 10 uM incubated for 24 hrs followed by H2O2 treatment for 3 hrs by immunofluorescence analysis; format: functional, cell-based; details: time 27.0 hrs
[9] = molecular target: T2, Protein deacetylase HDAC6 (Homo sapiens, UniProt Q9UBN7); assay: Inhibition of C-terminal FLAG-tagged full-length recombinant human HDAC6 (1 to 1215 residues) expressed in Sf9 insect cells using a fluorogenic substrate preincubated for 30 mins followed by substrate addition measured after 30 mins by fluorescence based assay
T2 sequence (Q9UBN7 whole entry): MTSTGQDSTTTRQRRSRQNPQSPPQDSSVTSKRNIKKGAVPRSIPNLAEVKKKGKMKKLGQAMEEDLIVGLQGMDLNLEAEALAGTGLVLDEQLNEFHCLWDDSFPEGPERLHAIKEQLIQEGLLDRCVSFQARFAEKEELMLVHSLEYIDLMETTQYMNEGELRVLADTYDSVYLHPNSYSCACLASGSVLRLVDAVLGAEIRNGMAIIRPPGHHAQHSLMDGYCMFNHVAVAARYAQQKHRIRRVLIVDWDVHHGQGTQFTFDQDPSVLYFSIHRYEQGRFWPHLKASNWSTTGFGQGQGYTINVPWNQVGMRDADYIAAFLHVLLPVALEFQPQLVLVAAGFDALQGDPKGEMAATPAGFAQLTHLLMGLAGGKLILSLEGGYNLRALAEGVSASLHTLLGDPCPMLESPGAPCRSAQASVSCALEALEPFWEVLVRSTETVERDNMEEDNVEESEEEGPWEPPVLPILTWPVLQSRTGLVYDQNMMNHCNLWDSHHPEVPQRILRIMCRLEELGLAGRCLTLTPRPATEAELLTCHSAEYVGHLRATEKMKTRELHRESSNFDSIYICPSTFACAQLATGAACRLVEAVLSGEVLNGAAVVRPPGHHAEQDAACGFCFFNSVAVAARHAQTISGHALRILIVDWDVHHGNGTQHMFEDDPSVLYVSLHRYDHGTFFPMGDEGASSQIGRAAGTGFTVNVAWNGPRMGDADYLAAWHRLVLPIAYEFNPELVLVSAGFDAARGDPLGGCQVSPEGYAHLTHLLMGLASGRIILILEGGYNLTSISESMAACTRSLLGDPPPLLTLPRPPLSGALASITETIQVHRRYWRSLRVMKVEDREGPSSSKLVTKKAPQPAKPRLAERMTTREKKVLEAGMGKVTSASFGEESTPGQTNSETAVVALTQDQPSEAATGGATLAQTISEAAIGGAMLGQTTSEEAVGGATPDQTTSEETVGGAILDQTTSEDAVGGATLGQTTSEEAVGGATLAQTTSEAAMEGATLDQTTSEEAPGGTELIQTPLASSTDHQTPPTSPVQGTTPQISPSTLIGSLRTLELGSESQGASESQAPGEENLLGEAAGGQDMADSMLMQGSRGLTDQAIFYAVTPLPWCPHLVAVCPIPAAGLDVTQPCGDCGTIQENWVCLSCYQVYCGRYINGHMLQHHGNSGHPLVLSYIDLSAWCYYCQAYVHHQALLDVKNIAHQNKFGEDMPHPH

Histone deacetylase 5 [10] = molecular target: T3, Histone deacetylase 5 (Homo sapiens, UniProt Q9UQL6); assay: Inhibition of C-terminal His-tagged recombinant human HDAC5 catalytic domain (656 to 1122 residues) expressed in baculovirus infected Sf9 insect cells using a fluorogenic substrate preincubated for 30 mins followed by substrate addition measured after 30 mins by fluorescence based assay relative to control; details: time 60.0 min
Histone deacetylase 5 [11] = molecular target: T3, Histone deacetylase 5; assay: Inhibition of C-terminal His-tagged recombinant human HDAC5 catalytic domain (656 to 1122 residues) expressed in baculovirus infected Sf9 insect cells using a fluorogenic substrate preincubated for 30 mins followed by substrate addition measured after 30 mins by fluorescence based assay
Histone deacetylase 8 = molecular target: T4, Histone deacetylase 8 (Homo sapiens, UniProt Q9BY41); assay: Inhibition of C-terminal His-tagged full-length recombinant human HDAC8 (1 to 377 residues) expressed in Sf9 insect cells using a fluorogenic substrate preincubated for 30 mins followed by substrate addition measured after 30 mins by fluorescence based assay
T4 sequence (Q9BY41 whole entry): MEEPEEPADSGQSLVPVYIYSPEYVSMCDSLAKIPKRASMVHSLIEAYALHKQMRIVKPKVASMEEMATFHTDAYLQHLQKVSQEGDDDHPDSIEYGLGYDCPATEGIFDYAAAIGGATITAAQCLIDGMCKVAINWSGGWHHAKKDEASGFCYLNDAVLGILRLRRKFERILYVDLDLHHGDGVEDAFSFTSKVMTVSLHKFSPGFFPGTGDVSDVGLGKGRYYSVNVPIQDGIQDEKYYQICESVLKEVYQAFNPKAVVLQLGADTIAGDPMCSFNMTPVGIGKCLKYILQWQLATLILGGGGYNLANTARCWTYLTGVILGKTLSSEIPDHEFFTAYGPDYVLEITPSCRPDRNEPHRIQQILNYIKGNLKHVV

[12] = molecular target: T5, Histone deacetylase 8 (Homo sapiens) (UniProt Q9BY41); assay: Inhibition of C-terminal His-tagged full-length recombinant human HDAC8 (1 to 377 residues) expressed in Sf9 insect cells using a fluorogenic substrate preincubated for 30 mins followed by substrate addition measured after 30 mins by fluorescence based assay relative to control; details: time 60.0 min
T5 sequence (whole entry): T4 sequence (Q9BY41 whole entry)

T1 sequence (Q13547 whole entry, the tested form may be a part): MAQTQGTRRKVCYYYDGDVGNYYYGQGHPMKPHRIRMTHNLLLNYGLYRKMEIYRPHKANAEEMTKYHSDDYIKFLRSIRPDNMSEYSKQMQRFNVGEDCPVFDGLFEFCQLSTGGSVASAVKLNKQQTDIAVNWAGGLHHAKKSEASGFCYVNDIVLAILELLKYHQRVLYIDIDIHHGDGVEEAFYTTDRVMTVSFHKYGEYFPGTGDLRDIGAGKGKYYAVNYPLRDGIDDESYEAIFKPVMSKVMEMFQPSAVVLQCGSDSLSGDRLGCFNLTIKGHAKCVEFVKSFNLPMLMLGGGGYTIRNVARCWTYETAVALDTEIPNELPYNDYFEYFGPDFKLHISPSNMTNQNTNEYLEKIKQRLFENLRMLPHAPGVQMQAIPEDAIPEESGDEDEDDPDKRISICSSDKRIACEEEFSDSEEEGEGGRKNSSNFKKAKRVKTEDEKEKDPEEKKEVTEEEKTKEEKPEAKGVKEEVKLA
T3 sequence (Q9UQL6 whole entry, the tested form may be a part): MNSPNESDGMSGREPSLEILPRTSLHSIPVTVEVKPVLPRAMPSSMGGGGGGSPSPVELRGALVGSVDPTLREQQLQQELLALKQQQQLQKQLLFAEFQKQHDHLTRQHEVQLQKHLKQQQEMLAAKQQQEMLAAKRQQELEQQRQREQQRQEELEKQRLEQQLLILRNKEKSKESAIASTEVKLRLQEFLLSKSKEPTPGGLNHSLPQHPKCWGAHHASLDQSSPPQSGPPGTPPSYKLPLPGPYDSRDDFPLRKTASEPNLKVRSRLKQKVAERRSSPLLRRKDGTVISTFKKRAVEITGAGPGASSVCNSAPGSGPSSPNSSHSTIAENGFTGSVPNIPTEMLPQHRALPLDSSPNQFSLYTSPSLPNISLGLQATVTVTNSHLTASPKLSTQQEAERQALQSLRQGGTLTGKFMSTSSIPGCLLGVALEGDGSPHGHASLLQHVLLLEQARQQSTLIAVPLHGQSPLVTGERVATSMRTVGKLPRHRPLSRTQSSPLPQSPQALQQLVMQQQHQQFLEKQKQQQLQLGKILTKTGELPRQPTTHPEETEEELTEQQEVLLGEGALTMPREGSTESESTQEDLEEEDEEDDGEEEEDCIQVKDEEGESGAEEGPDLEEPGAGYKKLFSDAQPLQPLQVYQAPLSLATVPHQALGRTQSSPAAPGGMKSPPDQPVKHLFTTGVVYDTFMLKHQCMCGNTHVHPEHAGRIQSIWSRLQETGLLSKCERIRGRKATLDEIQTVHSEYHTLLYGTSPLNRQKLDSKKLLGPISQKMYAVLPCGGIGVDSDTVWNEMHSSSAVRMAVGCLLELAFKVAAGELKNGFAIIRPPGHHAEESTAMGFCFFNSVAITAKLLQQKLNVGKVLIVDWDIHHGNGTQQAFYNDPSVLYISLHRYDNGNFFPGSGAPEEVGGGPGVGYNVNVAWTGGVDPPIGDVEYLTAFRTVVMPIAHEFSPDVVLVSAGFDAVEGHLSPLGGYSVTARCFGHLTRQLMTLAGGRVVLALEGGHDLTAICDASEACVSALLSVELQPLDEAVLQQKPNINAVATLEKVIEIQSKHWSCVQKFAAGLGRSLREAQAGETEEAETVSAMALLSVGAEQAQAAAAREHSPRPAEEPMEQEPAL

## O=C(NO)c1ccc(NC(=O)N2CCc3c(c4ccccc4n3Cc3ccccc3)C2)cc1
[1]
  remaining at 24 h: 90%
[2]
  logP: 3.99
[3]
  solubility: 141 µM (≈ 62.1 µg/mL)

## Cn1c2c(c3ccccc31)CN(C(=O)NCc1ccc(C(=O)NO)cc1)CC2
Histone deacetylase 1 [4]
  IC50: > 10 µM
Histone deacetylase 1 [5]
  inhibition: 41%

## CCN(CC)Cc1ccc(Cn2c3c(c4ccccc42)CN(C(=O)NCc2ccc(C(=O)NO)cc2)CC3)cc1
[1]
  remaining at 24 h: 92%
[2]
  logP: 4.08
[3]
  solubility: 295 µM (≈ 159 µg/mL)

## CN1CCc2c(c3ccccc3n2Cc2ccc(C(=O)NO)cc2)C1 [TUBASTATIN A]
661W [6]
  Activity: inactive
661W [7]
  Activity: inactive
[1]
  remaining at 24 h: 75%
[2]
  logP: 2.02
661W [8]
  Activity: Active
[3]
  solubility: 231 µM (≈ 77.5 µg/mL)

## O=C(NO)c1ccc(CNC(=S)N2CCc3c(c4ccccc4n3Cc3ccccc3)C2)cc1
[9]
  IC50: > 10 µM

## CC1(C)c2ccccc2N(Cc2ccc(C(=O)NO)cc2)C1c1cccnc1 (stereo not drawn)
Histone deacetylase 5 [10]
  inhibition: 14%
Histone deacetylase 5 [11]
  IC50: > 10 µM
[9]
  IC50: 0.0408 µM
[1]
  remaining at 24 h: 97%
[2]
  logP: 2.04
Histone deacetylase 1 [4]
  IC50: 5.42 µM
[3]
  solubility: 285 µM (≈ 106 µg/mL)
Histone deacetylase 8
  IC50: 2.2 µM

## O=C(NO)c1ccc(COC(=O)N2CCC3(CC2)CN(Cc2ccccc2)c2ccccc23)cc1
[1]
  remaining at 24 h: 64%
[2]
  logP: 4.2
[3]
  solubility: 156 µM (≈ 73.6 µg/mL)

## Cn1c2c(c3ccccc31)CN(Cc1ccc(C(=O)NO)cc1)CC2
[1]
  remaining at 24 h: 94%
[2]
  logP: 1.97
Histone deacetylase 1 [4]
  IC50: > 10 µM
[3]
  solubility: 200 µM (≈ 67.1 µg/mL)
Histone deacetylase 1 [5]
  inhibition: 43%

## Cn1c2c(c3ccccc31)CN(C(=O)OCc1ccc(C(=O)NO)cc1)CC2
[1]
  remaining at 24 h: 90%
[2]
  logP: 3.2
[12]
  inhibition: 38%
[3]
  solubility: 227 µM (≈ 86.1 µg/mL)
Histone deacetylase 8
  IC50: > 10 µM

## CC(/C=C/C(=O)NO)=C\[C@@H](C)C(=O)c1ccc(N(C)C)cc1 [TRICHOSTATIN]
[2]
  logP: 2.57

## CC(C)(C)OC(=O)N1CCC2(CC1)CN(Cc1ccc(C(=O)NO)cc1)c1ccccc12
[1]
  remaining at 24 h: 74%
[2]
  logP: 2.5
[3]
  solubility: 223 µM (≈ 97.6 µg/mL)

## CN1CC2(CCN(Cc3ccc(C(=O)NO)cc3)CC2)c2ccccc21
[1]
  remaining at 24 h: 71%
[2]
  logP: 2.1
[3]
  solubility: 97 µM (≈ 34.1 µg/mL)
